Results reported in US8507464B2, “Phosphoramidate alkylator prodrugs” (Threshold Pharmaceuticals, Inc., priority 2005, dated 2013).

Columns and labels:
[1] = tested on: NCI-H460 cells; test: Antiproliferation assay (Alamar Blue), anoxia vs air
[2] = tested on: NCI-H460 cells; test: Antiproliferation assay - oxygen dependence; format: cell-based, human
Description: . […] The calculated IC50 values (μM) are tabulated in Table Y1 (H460 cells) or Table Y2 (HT29 cells) below.

[3] = Homo sapiens, NCI-H460, 2 h, read-out: IC50 H460 Air, air, 2 h exposure
[4] = Homo sapiens, NCI-H460, 2 h, read-out: IC50 H460 Anoxia, anoxia, 2 h exposure
[5] = Homo sapiens, NCI-H460, read-out: IC50 in H460 cells, 0.6% O2
[6] = Homo sapiens, NCI-H460; read-out: IC50 in H460 cells, Air
[7] = read-out: IC50 H460 Air, air, 2 h exposure
[8] = read-out: IC50 H460 Anoxia, anoxia, 2 h exposure

Structure (SMILES)	IC50 [1, 3]	IC50 [1, 4]	other results
Cn1c(COP(=O)(N2CC2)N2CC2)cnc1[N+](=O)[O-] [Compound 28]	20 µM	0.15 µM	–
Cn1c(COc2ccc(COP3(=O)N(CCCl)CCCN3CCCl)cc2F)cnc1[N+](=O)[O-] [Compound 33]	46 µM	8 µM	–
C[C@@H](CCl)NP(=O)(N[C@@H](C)CCl)OCc1cnc([N+](=O)[O-])n1C [Compound 38]	> 100 µM	0.33 µM	IC50 [2, 5]: 45 µM; IC50 ([2]; Homo sapiens, NCI-H460, read-out: IC50 in H460 cells, 1% O2): > 100 µM; IC50 ([2]; Homo sapiens, NCI-H460; read-out: IC50 in H460 cells, N2): 0.4 µM
C[C@H](CCl)NP(=O)(N[C@H](C)CCl)OCc1ccc([N+](=O)[O-])s1 [Compound 39]	–	–	IC50 ([1]; read-out: IC50 H460 Air): 5 µM; IC50 ([1]; read-out: IC50 H460 Anoxia): 0.2 µM
C[C@@H](CCl)NP(=O)(N[C@@H](C)CCl)OCc1ccc([N+](=O)[O-])s1 [Compound 41]	–	–	IC50 ([1]; read-out: IC50 H460 Air): 7 µM
C[C@@H](CCl)NP(=O)(N[C@@H](C)CCl)OCc1ccc([N+](=O)[O-])o1 [Compound 42]	9 µM	0.5 µM	–
CC(C)[C@H](CCl)NP(=O)(N[C@@H](CCl)C(C)C)OCc1ccc([N+](=O)[O-])o1 [Compound 43]	60 µM	2 µM	–
CC(C)[C@H](CCl)NP(=O)(N[C@@H](CCl)C(C)C)OCc1ccc([N+](=O)[O-])s1 [Compound 44]	100 µM	3 µM	IC50 [2, 5]: 45 µM; IC50 [2, 6]: > 100 µM
CC(C)[C@H](CCl)NP(=O)(N[C@@H](CCl)C(C)C)OCc1cnc([N+](=O)[O-])n1C [Compound 45]	> 100 µM	6 µM	–
CC(C)[C@@H](CCl)NP(=O)(N[C@H](CCl)C(C)C)OCc1ccc([N+](=O)[O-])o1 [Compound 46]	> 100 µM	5 µM	IC50 [2, 5]: 50 µM; IC50 [2, 6]: 100 µM
CC(C)[C@@H](CCl)NP(=O)(N[C@H](CCl)C(C)C)OCc1ccc([N+](=O)[O-])s1 [Compound 47]	> 100 µM	4 µM	IC50 [2, 5]: 60 µM; IC50 [2, 6]: 100 µM
CC(C)[C@@H](CCl)NP(=O)(N[C@H](CCl)C(C)C)OCc1cnc([N+](=O)[O-])n1C [Compound 48]	> 100 µM	–	–
CC(C)[C@H](CCl)NP(=O)(N[C@@H](CCl)C(C)C)OCc1ccc(OCc2cnc([N+](=O)[O-])n2C)c(F)c1 [Compound 49]	–	–	IC50 ([1]; read-out: IC50 H460 Air): > 100 µM
Cn1c(COc2ccc(COP(=O)(NCCBr)NCCBr)cc2F)cnc1[N+](=O)[O-] [Compound 50]	3 µM	0.1 µM	IC50 [2, 5]: 3 µM; IC50 ([2]; Homo sapiens, NCI-H460, read-out: IC50 in H460 cells, Air): 3 µM
C[C@H](CCl)NP(=O)(N[C@H](C)CCl)OCc1ccc(OCc2cnc([N+](=O)[O-])n2C)c(F)c1 [Compound 51]	7 µM	3 µM	IC50 [2, 5]: 7 µM; IC50 [2, 6]: 7 µM
C[C@H](CCl)NP(=O)(N[C@H](C)CCl)OCc1ccc(-c2ccc([N+](=O)[O-])o2)cc1 [Compound 57]	–	–	IC50 ([1]; read-out: IC50 H460 Anoxia): 14 µM
O=[N+]([O-])c1ccc(C#Cc2ccc(COP(=O)(NCCBr)NCCBr)cc2)s1 [Compound 58]	10 µM	5 µM	–
CC(OP(=O)(NCCBr)NCCBr)c1ccc(-c2ccc([N+](=O)[O-])s2)cc1 (stereo not shown) [Compound 59]	6 µM	2 µM	–
COc1cc(C(C)OP(=O)(NCCBr)NCCBr)ccc1OCc1cnc([N+](=O)[O-])n1C (stereo not shown) [Compound 60]	15 µM	15 µM	–
Cn1c([N+](=O)[O-])nc(Br)c1-c1ccc(COP(=O)(NCCBr)NCCBr)cc1 [Compound 65]	–	–	IC50 [1, 7]: 75 µM; IC50 [1, 8]: 25 µM

Structure (SMILES)	IC50 [1, 3]	IC50 [1, 4]	other results
Cn1c(COP(=O)(NCCOS(C)(=O)=O)NCCOS(C)(=O)=O)cnc1[N+](=O)[O-] [Compound 67]	> 100 µM	48 µM	–
Cn1c(COC(=O)NCCCOP(=O)(NCCBr)NCCBr)cnc1[N+](=O)[O-] [Compound 68]	> 100 µM	≥ 100 µM	–
Cn1c(COC(=O)NCCCCOP(=O)(NCCBr)NCCBr)cnc1[N+](=O)[O-] [Compound 69]	> 100 µM	71 µM	–
CC(OP(=O)(NCCBr)NCCBr)c1ccc(OCc2ccc([N+](=O)[O-])o2)c([N+](=O)[O-])c1 (stereo not shown) [Compound 71]	0.1 µM	0.1 µM	–
C[C@H](CBr)NP(=O)(N[C@H](C)CBr)OCc1ccc([N+](=O)[O-])o1 [Compound 72]	12 µM	0.5 µM	–
O=[N+]([O-])c1ccc(COP(=O)(NCCBr)NCCBr)cc1 [Compound 74]	> 100 µM	> 100 µM	–
O=[N+]([O-])c1ccc(COP(=O)(NCCBr)NCCBr)c([N+](=O)[O-])c1 [Compound 75]	26 µM	9 µM	–
O=[N+]([O-])c1ncc(COP(=O)(NCCCl)NCCCl)n1C1CCCCC1 [Compound 76]	> 100 µM	9 µM	–
O=[N+]([O-])c1ncc(COP(=O)(NCCBr)NCCBr)n1C1CCCCC1 [Compound 77]	5.5 µM	1.6 µM	–
O=[N+]([O-])c1ccc(COP(=O)(NCCBr)NCCBr)cc1F [Compound 79]	3.5 µM	3.5 µM	–
O=[N+]([O-])c1nccn1CCCOP(=O)(NCCBr)NCCBr [Compound 80]	> 100 µM	> 100 µM	–
CCCn1c(COP(=O)(NCCCl)NCCCl)cnc1[N+](=O)[O-] [Compound 83]	> 100 µM	0.3 µM	–
O=[N+]([O-])c1ccsc1COP(=O)(NCCBr)NCCBr [Compound 86]	–	–	IC50 [1, 7]: 3 µM; IC50 [1, 8]: 1.4 µM
CC(OP(=O)(NCCCl)NCCCl)c1ncc([N+](=O)[O-])n1C (stereo not shown) [Compound 87]	> 100 µM	22 µM	–
CC(OP(=O)(NCCCl)NCCCl)c1ccc([N+](=O)[O-])s1 (stereo not shown) [Compound 89]	3.7 µM	0.33 µM	–
O=[N+]([O-])c1ncc(COP(=O)(NCCBr)NCCBr)n1CC(F)(F)F [Compound 90]	3.4 µM	0.01 µM	–
Cn1c(CSCCOP(=O)(NCCBr)NCCBr)cnc1[N+](=O)[O-] [Compound 91]	> 100 µM	–	–
Cn1c(CSCCCCOP(=O)(NCCBr)NCCBr)cnc1[N+](=O)[O-] [Compound 92]	> 100 µM	> 100 µM	–
CC(OP(=O)(N[C@H](C)CCl)N[C@H](C)CCl)c1ccc([N+](=O)[O-])s1 (stereo partly shown) [Compound 93]	–	–	IC50 [1, 7]: 3.8 µM; IC50 [1, 8]: 0.1 µM
O=[N+]([O-])c1sc(COP(=O)(NCCBr)NCCBr)cc1Br [Compound 94]	2 µM	0.3 µM	–

Structure (SMILES)	IC50 [1, 3]	IC50 [1, 4]	other results
O=[N+]([O-])c1sc(COP(=O)(NCCCl)NCCCl)cc1Br [Compound 95]	2.7 µM	–	–
N#Cc1cc(COP(=O)(NCCCl)NCCCl)sc1[N+](=O)[O-] [Compound 96]	–	–	IC50 [1, 7]: 0.1 µM; IC50 [1, 8]: 0.1 µM
CC(OP(=O)(NCCCl)NCCCl)c1ccc([N+](=O)[O-])o1 (stereo not shown) [Compound 104]	12 µM	0.4 µM	–
CC(OP(=O)(NCCBr)NCCBr)c1ccc([N+](=O)[O-])o1 (stereo not shown) [Compound 105]	1 µM	< 0.1 µM	–
O=[N+]([O-])c1ccc(COP(=O)(NCCOS(=O)(=O)c2ccc(Cl)cc2)NCCOS(=O)(=O)c2ccc(Cl)cc2)o1 [Compound 107]	–	–	IC50 ([1]; Homo sapiens, NCI-H460, 2 h, read-out: IC50 H460 Air): 2.8 µM; IC50 ([1]; Homo sapiens, NCI-H460, 2 h, read-out: IC50 H460 Anoxia): 0.06 µM
O=[N+]([O-])c1ccc(-c2ccc(OP3(=O)N(CCBr)CCN3CCBr)cc2)s1 [Compound 111]	100 µM	50 µM	–
Cn1c(COC(=O)NC(C)(C)COP2(=O)N(CCBr)CCN2CCBr)cnc1[N+](=O)[O-] [Compound 112]	> 100 µM	70 µM	–
CC(C)(C#Cc1ccc([N+](=O)[O-])s1)COP(N)(=O)N(CCCl)CCCl (stereo not shown) [Compound 115]	5 µM	0.5 µM	–
Cc1cc(C(C)OP(N)(=O)N(CCCl)CCCl)sc1[N+](=O)[O-] (stereo not shown) [Compound 116]	15 µM	0.5 µM	–
CC(C)(C#Cc1ccc([N+](=O)[O-])cc1)OP(N)(=O)N(CCCl)CCCl (stereo not shown) [Compound 117]	70 µM	8 µM	–
O=[N+]([O-])c1ccc(COP(=O)(NCCCCCCCCNP(=O)(OCc2ccc([N+](=O)[O-])o2)N(CCCl)CCCl)N(CCCl)CCCl)o1 (stereo not shown) [Compound 139]	100 µM	16 µM	–
O=[N+]([O-])c1ccc(COP(=O)(NCCOCCOCCNP(=O)(OCc2ccc([N+](=O)[O-])o2)N(CCCl)CCCl)N(CCCl)CCCl)o1 (stereo not shown) [Compound 140]	65 µM	5 µM	–
Cn1c([N+](=O)[O-])cnc1COc1ccc(COP(N)(=O)N(CCCl)CCCl)cc1 (stereo not shown) [Compound 142]	> 100 µM	> 40 µM	–
O=[N+]([O-])c1ccc(COP(=O)(N(CCCl)CCCl)N(CCCl)CCCl)o1 [Compound 143]	3.5 µM	4.5 µM	–
Cn1c(COP(=O)(OCc2cnc([N+](=O)[O-])n2C)N(CCCl)CCCl)cnc1[N+](=O)[O-] [Compound 145]	> 100 µM	> 100 µM	–
Cn1c([N+](=O)[O-])cnc1/C=C/COP1(=O)N(CCCl)CCN1CCCl [Compound 147]	> 100 µM	> 100 µM	–
CC(=O)NP(=O)(OCc1cnc([N+](=O)[O-])n1C)N(CCCl)CCCl (stereo not shown) [Compound 149]	> 100 µM	50 µM	–
CN(CCCl)P(=O)(OCc1ccc(OCc2cnc([N+](=O)[O-])n2C)c(F)c1)N(C)CCCl [Compound 150]	21 µM	–	–
COc1cc2c(=O)n(CCN(C)P(=O)(OCc3ccc([N+](=O)[O-])o3)N(CCCl)CCCl)c3c4cc5c(cc4ncc3c2cc1OC)OCO5 (stereo not shown) [Compound 154]	2 µM	0.9 µM	–
